The source made the active and inactive calls. The rule behind the calls is not given here.
Test system: CCRIS mutagenicity, Ames/micronucleus/aberration tests
Assay: CCRIS mutagenicity studies
[1] = Test System: AMES SALMONELLA TYPHIMURIUM, Strain/Indicator: TA98, Metabolic Activation: HAMSTER, LIVER, S-9, AROCLOR 1254 (30%), Method: PREINCUBATION
[2] = Test System: AMES SALMONELLA TYPHIMURIUM, Strain/Indicator: TA98, Metabolic Activation: NONE, Method: PREINCUBATION
[3] = Test System: AMES SALMONELLA TYPHIMURIUM, Strain/Indicator: TA98, Metabolic Activation: NONE, Method: STANDARD PLATE
[4] = Test System: AMES SALMONELLA TYPHIMURIUM, Strain/Indicator: TA98, Metabolic Activation: RAT, LIVER, S-9, AROCLOR 1254 (30%), Method: PREINCUBATION
[5] = Test System: AMES SALMONELLA TYPHIMURIUM, Strain/Indicator: TA98, Metabolic Activation: RAT, LIVER, S-9, AROCLOR 1254, Method: STANDARD PLATE
[6] = Test System: AMES SALMONELLA TYPHIMURIUM, Strain/Indicator: TA100, Metabolic Activation: HAMSTER, LIVER, S-9, AROCLOR 1254 (30%), Method: PREINCUBATION
[7] = Test System: AMES SALMONELLA TYPHIMURIUM, Strain/Indicator: TA100, Metabolic Activation: NONE, Method: PREINCUBATION
[8] = Test System: AMES SALMONELLA TYPHIMURIUM, Strain/Indicator: TA100, Metabolic Activation: NONE, Method: STANDARD PLATE
[9] = Test System: AMES SALMONELLA TYPHIMURIUM, Strain/Indicator: TA100, Metabolic Activation: RAT, LIVER, S-9, AROCLOR 1254 (30%), Method: PREINCUBATION
[10] = Test System: AMES SALMONELLA TYPHIMURIUM, Strain/Indicator: TA100, Metabolic Activation: RAT, LIVER, S-9, AROCLOR 1254, Method: STANDARD PLATE
[11] = Test System: AMES SALMONELLA TYPHIMURIUM, Strain/Indicator: TA1538, Metabolic Activation: RAT, LIVER, S-9, AROCLOR 1254, Method: STANDARD PLATE

SMILES: FC(F)(F)c1cccc(Cl)c1
- mutagenic call (Test System: AMES SALMONELLA TYPHIMURIUM, Strain/Indicator: TA97, Metabolic Activation: HAMSTER, LIVER, S-9, AROCLOR 1254 (10%), Method: PREINCUBATION): inactive; negative
- mutagenic call (Test System: AMES SALMONELLA TYPHIMURIUM, Strain/Indicator: TA97, Metabolic Activation: HAMSTER, LIVER, S-9, AROCLOR 1254 (30%), Method: PREINCUBATION): inactive; negative
- mutagenic call (Test System: AMES SALMONELLA TYPHIMURIUM, Strain/Indicator: TA97, Metabolic Activation: NONE, Method: PREINCUBATION): inactive; negative
- mutagenic call (Test System: AMES SALMONELLA TYPHIMURIUM, Strain/Indicator: TA97, Metabolic Activation: RAT, LIVER, S-9, AROCLOR 1254 (10%), Method: PREINCUBATION): inactive; negative
- mutagenic call (Test System: AMES SALMONELLA TYPHIMURIUM, Strain/Indicator: TA97, Metabolic Activation: RAT, LIVER, S-9, AROCLOR 1254 (30%), Method: PREINCUBATION): inactive; negative
- mutagenic call (Test System: AMES SALMONELLA TYPHIMURIUM, Strain/Indicator: TA98, Metabolic Activation: HAMSTER, LIVER, S-9, AROCLOR 1254 (10%), Method: PREINCUBATION): inactive; negative
- mutagenic call [1]: inactive; negative
- mutagenic call [2]: inactive; negative
- mutagenic call [3]: inactive; negative
- mutagenic call (Test System: AMES SALMONELLA TYPHIMURIUM, Strain/Indicator: TA98, Metabolic Activation: RAT, LIVER, S-9, AROCLOR 1254 (10%), Method: PREINCUBATION): inactive; negative
- mutagenic call [4]: inactive; negative
- mutagenic call [5]: inactive; negative
- mutagenic call (Test System: AMES SALMONELLA TYPHIMURIUM, Strain/Indicator: TA100, Metabolic Activation: HAMSTER, LIVER, S-9, AROCLOR 1254 (10%), Method: PREINCUBATION): inactive; negative
- mutagenic call [6]: inactive; negative
- mutagenic call [7]: inactive; negative
- mutagenic call [8]: inactive; negative
- mutagenic call (Test System: AMES SALMONELLA TYPHIMURIUM, Strain/Indicator: TA100, Metabolic Activation: RAT, LIVER, S-9, AROCLOR 1254 (10%), Method: PREINCUBATION): inactive; negative
- mutagenic call [9]: inactive; negative
- mutagenic call [10]: inactive; negative
- mutagenic call (Test System: AMES SALMONELLA TYPHIMURIUM, Strain/Indicator: TA1535, Metabolic Activation: HAMSTER, LIVER, S-9, AROCLOR 1254 (10%), Method: PREINCUBATION): inactive; negative
- mutagenic call (Test System: AMES SALMONELLA TYPHIMURIUM, Strain/Indicator: TA1535, Metabolic Activation: HAMSTER, LIVER, S-9, AROCLOR 1254 (30%), Method: PREINCUBATION): inactive; negative
- mutagenic call (Test System: AMES SALMONELLA TYPHIMURIUM, Strain/Indicator: TA1535, Metabolic Activation: NONE, Method: PREINCUBATION): inactive; negative
- mutagenic call (Test System: AMES SALMONELLA TYPHIMURIUM, Strain/Indicator: TA1535, Metabolic Activation: NONE, Method: STANDARD PLATE): inactive; negative
- mutagenic call (Test System: AMES SALMONELLA TYPHIMURIUM, Strain/Indicator: TA1535, Metabolic Activation: RAT, LIVER, S-9, AROCLOR 1254 (10%), Method: PREINCUBATION): inactive; negative
- mutagenic call (Test System: AMES SALMONELLA TYPHIMURIUM, Strain/Indicator: TA1535, Metabolic Activation: RAT, LIVER, S-9, AROCLOR 1254 (30%), Method: PREINCUBATION): inactive; negative
- mutagenic call (Test System: AMES SALMONELLA TYPHIMURIUM, Strain/Indicator: TA1535, Metabolic Activation: RAT, LIVER, S-9, AROCLOR 1254, Method: STANDARD PLATE): inactive; negative
- mutagenic call (Test System: AMES SALMONELLA TYPHIMURIUM, Strain/Indicator: TA1537, Metabolic Activation: HAMSTER, LIVER, S-9, AROCLOR 1254 (30%), Method: PREINCUBATION): inactive; negative
- mutagenic call (Test System: AMES SALMONELLA TYPHIMURIUM, Strain/Indicator: TA1537, Metabolic Activation: NONE, Method: PREINCUBATION): inactive; negative
- mutagenic call (Test System: AMES SALMONELLA TYPHIMURIUM, Strain/Indicator: TA1537, Metabolic Activation: NONE, Method: STANDARD PLATE): inactive; negative
- mutagenic call (Test System: AMES SALMONELLA TYPHIMURIUM, Strain/Indicator: TA1537, Metabolic Activation: RAT, LIVER, S-9, AROCLOR 1254 (30%), Method: PREINCUBATION): inactive; negative
- mutagenic call (Test System: AMES SALMONELLA TYPHIMURIUM, Strain/Indicator: TA1537, Metabolic Activation: RAT, LIVER, S-9, AROCLOR 1254, Method: STANDARD PLATE): inactive; negative
- mutagenic call (Test System: AMES SALMONELLA TYPHIMURIUM, Strain/Indicator: TA1538, Metabolic Activation: NONE, Method: STANDARD PLATE): inactive; negative
- mutagenic call [11]: inactive; negative

SMILES: O=c1c(O)c(-c2ccc(O)c(O)c2)oc2cc(O)ccc12
- mutagenic call (End Point: IN VITRO CHROMOSOMAL ABERRATIONS, Test System: HUMAN HL60 CELLS, Metabolic Activation: NONE): active; positive (structural changes)
- mutagenic call (End Point: IN VITRO CHROMOSOMAL ABERRATIONS, Test System: HUMAN TK6 CELLS, Metabolic Activation: NONE): active; positive (structural changes)
- mutagenic call (End Point: IN VITRO MICRONUCLEUS, Test System: HUMAN HL60 CELLS, Metabolic Activation: NONE): active; positive
- mutagenic call (End Point: IN VITRO MICRONUCLEUS, Test System: HUMAN TK6 CELLS, Metabolic Activation: NONE): active; positive
- mutagenic call (Test System: Ames Salmonella typhimurium, Strain/Indicator: TA102, Metabolic Activation: None, Method: Preincubation): inactive; negative
- mutagenic call (Test System: Ames Salmonella typhimurium, Strain/Indicator: TA102, Metabolic Activation: Rat, Liver, S-9, Aroclor 1254 in 0.154 M KCl, Method: Preincubation): inactive; negative

SMILES: Nc1ccc(N=Nc2ccccc2)cc1
- mutagenic call [1]: active; positive
- mutagenic call [2]: inactive; negative
- mutagenic call [3]: inactive; negative
- mutagenic call (Test System: AMES SALMONELLA TYPHIMURIUM, Strain/Indicator: TA98, Metabolic Activation: RAT, LIVER, MICROSOMES, 4-AMINOAZOBENZENE, Method: PREINCUBATION): inactive; negative
- mutagenic call (Test System: AMES SALMONELLA TYPHIMURIUM, Strain/Indicator: TA98, Metabolic Activation: RAT, LIVER, MICROSOMES, AROCLOR 1254, Method: PREINCUBATION): inactive; negative
- mutagenic call (Test System: AMES SALMONELLA TYPHIMURIUM, Strain/Indicator: TA98, Metabolic Activation: RAT, LIVER, MICROSOMES, Method: PREINCUBATION): inactive; negative
- mutagenic call [4]: active; positive
- mutagenic call [5]: active; positive
- mutagenic call (Test System: AMES SALMONELLA TYPHIMURIUM, Strain/Indicator: TA98, Metabolic Activation: RAT, LIVER, S-9, KC500 OR PHENOBARBITAL, Method: LIQUID SUSPENSION): active; positive
- mutagenic call (Test System: AMES SALMONELLA TYPHIMURIUM, Strain/Indicator: TA98, Metabolic Activation: RAT, LIVER, S-9, PCB, Method: PREINCUBATION): active; positive
- mutagenic call [6]: active; positive
- mutagenic call [7]: inactive; negative
- mutagenic call [8]: inactive; negative
- mutagenic call [9]: inactive; negative
- mutagenic call [10]: active; positive
- mutagenic call (Test System: AMES SALMONELLA TYPHIMURIUM, Strain/Indicator: TA100, Metabolic Activation: RAT, LIVER, S-9, KC500 OR PHENOBARBITAL, Method: LIQUID SUSPENSION): active; positive
- mutagenic call (Test System: AMES SALMONELLA TYPHIMURIUM, Strain/Indicator: TA100, Metabolic Activation: RAT, LIVER, S-9, PCB, Method: PREINCUBATION): active; positive
- mutagenic call [11]: active; positive
- mutagenic call (Test System: UDS RODENT HEPATOCYTES, Strain/Indicator: THY INCORP (NON-S-PHASE), Method: AUTORADIOGRAPHY): active; positive
